For 27 molecules, IC50 results are on record in US20250313556A1, “CERTAIN CHEMICAL ENTITIES, COMPOSITIONS, AND METHODS” (MRJA THERAPEUTICS, INC., priority 2022, published 2025).

The test deals with c-KIT (Homo sapiens, UniProt P10721). Put plainly: c-KIT ADP-Glo biochemical assay. Here is the method: The inhibitory activity against c-KIT was measured using ADP-Glo assay. The percent (%) inhibition at each concentration of compound is calculated based on and relative to the luminescence signal in the Max and Min control wells contained within each assay plate. The Max control wells contain enzyme and substrate as 0% inhibition, and the Min control wells only contain substrate without enzyme as 100% inhibition. The concentrations and % inhibition values for tested compounds are plotted and the concentration of compound required for 50% inhibition (IC50) is determined with a four-parameter logistic dose response equation. The ability of the compounds in Table 1 to inhibit c-KIT was determined.
(ADP-Glo first removes unused ATP, then detects ADP through luciferase.)

[1] abbreviates: comparison of prior art compounds (WO 2013/033167) with example 3 (C003).

pIC50: −log10 of the molar value.

Sequence of c-KIT (P10721 26-976): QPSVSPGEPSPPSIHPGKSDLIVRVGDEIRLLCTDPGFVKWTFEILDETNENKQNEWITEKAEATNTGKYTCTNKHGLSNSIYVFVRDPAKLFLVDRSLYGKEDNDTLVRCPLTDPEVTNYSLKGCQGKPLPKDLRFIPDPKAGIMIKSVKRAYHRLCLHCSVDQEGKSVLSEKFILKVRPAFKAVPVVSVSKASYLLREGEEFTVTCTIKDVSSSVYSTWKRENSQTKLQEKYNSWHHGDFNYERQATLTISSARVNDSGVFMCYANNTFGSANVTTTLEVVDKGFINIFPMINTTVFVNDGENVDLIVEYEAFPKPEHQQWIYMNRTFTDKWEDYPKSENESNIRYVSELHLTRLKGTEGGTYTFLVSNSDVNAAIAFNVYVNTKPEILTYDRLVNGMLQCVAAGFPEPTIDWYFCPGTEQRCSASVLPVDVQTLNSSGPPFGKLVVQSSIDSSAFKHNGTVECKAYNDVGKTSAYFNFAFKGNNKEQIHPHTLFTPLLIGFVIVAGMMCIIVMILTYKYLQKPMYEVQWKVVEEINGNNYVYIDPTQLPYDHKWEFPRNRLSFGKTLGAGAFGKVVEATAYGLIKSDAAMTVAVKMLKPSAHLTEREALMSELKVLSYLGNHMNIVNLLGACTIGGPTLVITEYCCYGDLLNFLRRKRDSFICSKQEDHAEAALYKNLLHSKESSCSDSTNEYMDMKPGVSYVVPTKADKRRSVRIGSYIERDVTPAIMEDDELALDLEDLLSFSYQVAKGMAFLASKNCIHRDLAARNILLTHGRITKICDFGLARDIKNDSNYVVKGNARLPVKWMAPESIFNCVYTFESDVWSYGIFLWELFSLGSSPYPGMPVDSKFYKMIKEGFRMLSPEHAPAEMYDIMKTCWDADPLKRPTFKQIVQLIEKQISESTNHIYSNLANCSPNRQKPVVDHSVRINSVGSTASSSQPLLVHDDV

Take `COC(=O)N1CC(c2nc(-c3cc(F)c(C)c(NC(=O)c4cnc5cc(C#N)ccn45)c3)no2)C1` [Compound C035, methyl 3-(3-(3-(7-cyanoimidazo[1,2-a]pyridine-3-carboxamido)-5-fluoro-4-methylphenyl)-1,2,4-oxadiazol-5-yl)azetidine-1-carboxylate]: the pIC50 (class ranges) was 4.70 to 6.00.
Molecule `CC(=O)N1CCN(c2ccn3c(C(=O)Nc4cc(-c5noc(C6CC(F)(F)C6)n5)cc(F)c4C)cnc3c2)CC1` [Compound C018, 7-(4-acetylpiperazin-1-yl)-N-(5-(5-(3,3-difluorocyclobutyl)-1,2,4-oxadiazol-3-yl)-3-fluoro-2-methylphenyl)imidazo[1,2-a]pyridine-3-carboxamide] had a pIC50 (class ranges) of 6.00 to 7.00.
On the same count and under the same terms, with `COC(=O)N1CC(c2nc(-c3cc(F)c(C)c(NC(=O)c4cnc5ccc(N6CCNCC6)cn45)c3)no2)C1` [Compound C020, methyl 3-(3-(3-fluoro-4-methyl-5-(6-(piperazin-1-yl)imidazo[1,2-a]pyridine-3-carboxamido)phenyl)-1,2,4-oxadiazol-5-yl)azetidine-1-carboxylate] the figure was 4.70 to 6.00; with `Cc1c(F)cc(-c2noc(C3CC(F)(F)C3)n2)cc1NC(=O)c1cnc2ccccn12` [Compound C001, N-(5-(5-(3,3-difluorocyclobutyl)-1,2,4-oxadiazol-3-yl)-3-fluoro-2-methylphenyl)imidazo[1,2-a]pyridine-3-carboxamide], 4.70 to 6.00; with `Cc1c(F)cc(-c2noc([C@H]3C[C@@H]3F)n2)cc1NC(=O)c1cnc2cc(N3CCNCC3)ccn12` (racemic) [Compound C022, N-(3-fluoro-5-(5-((1R,2S)-2-fluorocyclopropyl)-1,2,4-oxadiazol-3-yl)-2-methylphenyl)-7-(piperazin-1-yl)imidazo[1,2-a]pyridine-3-carboxamide], 4.70 to 6.00.
The same measure, in the same setting: the same measure for `COC(=O)N1CC(c2cnc(-c3cc(F)c(C)c(NC(=O)c4cnc5ccccn45)c3)o2)C1` [Compound C051, methyl 3-(2-(3-fluoro-5-(imidazo[1,2-a]pyridine-3-carboxamido)-4-methylphenyl)oxazol-5-yl)azetidine-1-carboxylate]: 4.70 to 6.00.
On the same count and under the same terms, with `CNC(=O)N1CC(c2nc(-c3cc(F)c(C)c(NC(=O)c4cnc5ccccn45)c3)no2)C1` [Compound C032, N-(3-fluoro-2-methyl-5-(5-(1-(methylcarbamoyl)azetidin-3-yl)-1,2,4-oxadiazol-3-yl)phenyl)imidazo[1,2-a]pyridine-3-carboxamide] the figure was 4.70 to 6.00; with `COC(=O)N1CC(c2nc(-c3cc(F)c(C)c(NC(=O)c4cnc5ccc(N6CCOCC6)cn45)c3)no2)C1` [Compound C009, methyl 3-(3-(3-fluoro-4-methyl-5-(6-morpholinoimidazo[1,2-a]pyridine-3-carboxamido)phenyl)-1,2,4-oxadiazol-5-yl)azetidine-1-carboxylate], 6.00 to 7.00.
Consider `COC(=O)N1CC(c2noc(-c3cc(F)c(C)c(NC(=O)c4cnc5ccccn45)c3)n2)C1` [Compound C037, methyl 3-(5-(3-fluoro-5-(imidazo[1,2-a]pyridine-3-carboxamido)-4-methylphenyl)-1,2,4-oxadiazol-3-yl)azetidine-1-carboxylate], for which the pIC50 (class ranges) is 6.00 to 7.00.
As for `COC(=O)N1CC(c2nc(-c3cc(NC(=O)c4cnc5ccccn45)c(C)cc3F)no2)C1` [methyl 3-(3-(2-fluoro-5-(imidazo[1,2-a]pyridine-3-carboxamido)-4-methylphenyl)-1,2,4-oxadiazol-5-yl)azetidine-1-carboxylate, reference compound], the negative logarithm of the IC50 (pIC50) under setting [1] is 5.31.
The molecule `Cc1c(F)cc(-c2noc([C@@H]3C[C@H]3F)n2)cc1NC(=O)c1cnc2cc(N3CCOCC3)ccn12` [Compound C050, N-(3-fluoro-5-(5-((1S,2R)-2-fluorocyclopropyl)-1,2,4-oxadiazol-3-yl)-2-methylphenyl)-7-morpholinoimidazo[1,2-a]pyridine-3-carboxamide] showed a pIC50 (class ranges) of 6.00 to 7.00.
For the molecule `COC(=O)N1CC(c2nc(-c3cc(F)c(C)c(NC(=O)c4cnc5cc(Cl)ccn45)c3)no2)C1` [Compound C016, methyl 3-(3-(3-(7-chloroimidazo[1,2-a]pyridine-3-carboxamido)-5-fluoro-4-methylphenyl)-1,2,4-oxadiazol-5-yl)azetidine-1-carboxylate], the pIC50 (class ranges) is 6.00 to 7.00.
On the same count and under the same terms, the same measure for `COC(=O)N1CC(c2nc(-c3cc(F)c(C)c(NC(=O)c4cnc5ccc(N6CCN(C(C)=O)CC6)cn45)c3)no2)C1` [Compound C036, methyl 3-(3-(3-(6-(4-acetylpiperazin-1-yl)imidazo[1,2-a]pyridine-3-carboxamido)-5-fluoro-4-methylphenyl)-1,2,4-oxadiazol-5-yl)azetidine-1-carboxylate]: not below 7.00; for `COC(=O)N1CC(c2nc(-c3cc(F)c(C)c(NC(=O)c4cnc5cc(C)ccn45)c3)no2)C1` [Compound C017, methyl 3-(3-(3-fluoro-4-methyl-5-(7-methylimidazo[1,2-a]pyridine-3-carboxamido)phenyl)-1,2,4-oxadiazol-5-yl)azetidine-1-carboxylate]: 6.00 to 7.00; for `COC(=O)N1CC(c2coc(-c3cc(F)c(C)c(NC(=O)c4cnc5ccccn45)c3)n2)C1` [Compound C047, methyl 3-(2-(3-fluoro-5-(imidazo[1,2-a]pyridine-3-carboxamido)-4-methylphenyl)oxazol-4-yl)azetidine-1-carboxylate]: 6.00 to 7.00.
Still for that read-out and setting: with `COC(=O)N1CC(c2nc(-c3cc(F)c(C)c(NC(=O)c4cnc5ccc(N6CCN(C)CC6)cn45)c3)no2)C1` [Compound C028, methyl 3-(3-(3-fluoro-4-methyl-5-(6-(4-methylpiperazin-1-yl)imidazo[1,2-a]pyridine-3-carboxamido)phenyl)-1,2,4-oxadiazol-5-yl)azetidine-1-carboxylate] the figure was 6.00 to 7.00.
The same measure, in the same setting: the same measure for `COC(=O)N1CC(c2nc(-c3cc(F)c(C)c(NC(=O)c4cnn5ccccc45)c3)no2)C1` [Compound C006, methyl 3-(3-(3-fluoro-4-methyl-5-(pyrazolo[1,5-a]pyridine-3-carboxamido)phenyl)-1,2,4-oxadiazol-5-yl)azetidine-1-carboxylate]: 6.00 to 7.00.
Molecule `Cc1c(F)cc(-c2noc(C3CC(F)(F)C3)n2)cc1NC(=O)c1cnc2cc(N3CCOCC3)ccn12` [Compound C013, N-(5-(5-(3,3-difluorocyclobutyl)-1,2,4-oxadiazol-3-yl)-3-fluoro-2-methylphenyl)-7-morpholinoimidazo[1,2-a]pyridine-3-carboxamide] showed a pIC50 (class ranges) of 6.00 to 7.00.
Under “class ranges”, `Cc1c(F)cc(-c2noc(C3CC(F)(F)C3)n2)cc1NC(=O)c1cnc2cc(N3CCNCC3)ccn12` [Compound C010, N-(5-(5-(3,3-difluorocyclobutyl)-1,2,4-oxadiazol-3-yl)-3-fluoro-2-methylphenyl)-7-(piperazin-1-yl)imidazo[1,2-a]pyridine-3-carboxamide] gave a pIC50 of 6.00 to 7.00.
Take `COC(=O)N1CC(c2nc(-c3cc(F)c(C)c(NC(=O)c4cnc5ccccn45)c3)no2)C1` [Compound C003, methyl 3-(3-(3-fluoro-5-(imidazo[1,2-a]pyridine-3-carboxamido)-4-methylphenyl)-1,2,4-oxadiazol-5-yl)azetidine-1-carboxylate]: the pIC50 is not below 7.00 (class ranges) and 7.37 under setting [1].
The molecule `COC(=O)N1CC[C@H](c2nc(-c3cc(F)c(C)c(NC(=O)c4cnc5ccccn45)c3F)no2)C1` [Compound C055, methyl (S)-3-(3-(2,5-difluoro-3-(imidazo[1,2-a]pyridine-3-carboxamido)-4-methylphenyl)-1,2,4-oxadiazol-5-yl)pyrrolidine-1-carboxylate] showed a negative-log IC50 (pIC50) (class ranges) of 6.00 to 7.00.
For the molecule `COC(=O)N1CC(c2nc(-c3cc(F)c(C)c(NC(=O)c4cnc5ccccn45)c3F)no2)C1` [Compound C052, methyl 3-(3-(2,5-difluoro-3-(imidazo[1,2-a]pyridine-3-carboxamido)-4-methylphenyl)-1,2,4-oxadiazol-5-yl)azetidine-1-carboxylate], the pIC50 (class ranges) is not below 7.00.
Same read-out and setting: the same measure for `COC(=O)N1CC(c2nnc(-c3cc(F)c(C)c(NC(=O)c4cnc5ccccn45)c3)[nH]2)C1` [Compound C048, methyl 3-(5-(3-fluoro-5-(imidazo[1,2-a]pyridine-3-carboxamido)-4-methylphenyl)-4H-1,2,4-triazol-3-yl)azetidine-1-carboxylate]: 6.00 to 7.00; for `COC(=O)N1CC(c2nc(-c3cc(F)c(C)c(NC(=O)c4cnc5cc(C(N)=O)ccn45)c3)no2)C1` [Compound C043, methyl 3-(3-(3-(7-carbamoylimidazo[1,2-a]pyridine-3-carboxamido)-5-fluoro-4-methylphenyl)-1,2,4-oxadiazol-5-yl)azetidine-1-carboxylate]: not below 7.00; for `COC(=O)N1CCC[C@@H](c2nc(-c3cc(F)c(C)c(NC(=O)c4cnc5ccccn45)c3F)no2)C1` [Compound C054, methyl (R)-3-(3-(2,5-difluoro-3-(imidazo[1,2-a]pyridine-3-carboxamido)-4-methylphenyl)-1,2,4-oxadiazol-5-yl)piperidine-1-carboxylate]: 6.00 to 7.00.
The same measure, in the same setting: with `Cc1c(F)cc(-c2noc([C@H]3C[C@@H]3F)n2)cc1NC(=O)c1cnc2ccc(N3CCN(C)CC3)cn12` (racemic) [Compound C034, N-(3-fluoro-5-(5-((1R,2S)-2-fluorocyclopropyl)-1,2,4-oxadiazol-3-yl)-2-methylphenyl)-6-(4-methylpiperazin-1-yl)imidazo[1,2-a]pyridine-3-carboxamide] the figure was 6.00 to 7.00; with `Cc1c(F)cc(-c2noc(C3CC(F)(F)C3)n2)cc1NC(=O)c1cnc2cc(N3CCN(C)CC3)ccn12` [Compound C011, N-(5-(5-(3,3-difluorocyclobutyl)-1,2,4-oxadiazol-3-yl)-3-fluoro-2-methylphenyl)-7-(4-methylpiperazin-1-yl)imidazo[1,2-a]pyridine-3-carboxamide], 6.00 to 7.00.

As a reminder, the pIC50 is the IC50 on a negative log10 scale, so that one unit is a factor of ten. The low end stands for a large IC50, the high end for a small IC50.
